{"source": "DBAASP", "test_in_all_cases": "≥ marks a high value that may be exact or a test limit, other limits are often not marked, values filed in µg/mL are converted to µM", "key": {"Enterococcus faecium": {"tested_on": "Enterococcus faecium"}, "Staphylococcus aureus": {"tested_on": "Staphylococcus aureus"}, "Klebsiella pneumoniae": {"tested_on": "Klebsiella pneumoniae"}, "[1]": {"tested_on": "Stenotrophomonas maltophilia"}, "Pseudomonas aeruginosa": {"tested_on": "Pseudomonas aeruginosa"}, "Streptococcus pneumoniae": {"tested_on": "Streptococcus pneumoniae"}, "Acinetobacter baumannii": {"tested_on": "Acinetobacter baumannii"}, "Serratia marcescens": {"tested_on": "Serratia marcescens"}, "Staphylococcus aureus MR": {"tested_on": "Staphylococcus aureus MR"}, "Escherichia coli": {"tested_on": "Escherichia coli"}, "Enterococcus faecalis": {"tested_on": "Enterococcus faecalis"}, "[2]": {"tested_on": "Proteus mirabilis ATCC 25933"}, "[3]": {"tested_on": "Pseudomonas aeruginosa ATCC 27853"}, "[4]": {"tested_on": "Staphylococcus epidermidis RP62A"}, "[5]": {"tested_on": "Escherichia coli ATCC 25726"}, "[6]": {"tested_on": "Candida albicans ATCC 90028"}, "[7]": {"tested_on": "Staphylococcus epidermidis RP62A/1"}, "[8]": {"tested_on": "Staphylococcus aureus ATCC 29213"}, "[9]": {"tested_on": "Klebsiella pneumoniae ATCC 700603"}, "[10]": {"tested_on": "Staphylococcus aureus ATCC 25923"}, "[11]": {"tested_on": "Salmonella enterica subsp. enterica serovar Enteritidis ATCC 13076"}, "[12]": {"tested_on": "Escherichia coli ATCC 27325"}, "[13]": {"tested_on": "Saccharomyces cerevisiae ATCC 44774"}, "[14]": {"tested_on": "Cryptococcus neoformans ATCC 34881"}, "[15]": {"tested_on": "Bacillus subtilis ATCC 62037"}, "[16]": {"tested_on": "Streptococcus mutans ATCC 25175"}, "[17]": {"tested_on": "Staphylococcus aureus ATCC 15752"}, "[18]": {"tested_on": "Pseudomonas putida ATCC 17426"}, "[19]": {"tested_on": "Candida albicans ATCC 10231"}, "[20]": {"tested_on": "Staphylococcus epidermidis C621"}, "Escherichia coli UB1005": {"tested_on": "Escherichia coli UB1005"}, "Escherichia coli DC2": {"tested_on": "Escherichia coli DC2"}, "[21]": {"tested_on": "Corynebacterium xerosis C875"}, "Bacillus anthracis": {"tested_on": "Bacillus anthracis"}, "Bacillus cereus": {"tested_on": "Bacillus cereus"}}, "data": [{"smiles": "CC[C@H](C)[C@H](NC(=O)[C@@H](NC(=O)[C@H](CCCCN)NC(=O)[C@H](CS)NC(=O)[C@H](CCCCN)NC(=O)[C@H](CCCN=C(N)N)NC(=O)[C@H](CC(C)C)NC(=O)[C@@H](NC(=O)[C@H](CCCCN)NC(=O)[C@@H](NC(=O)[C@H](CC(C)C)NC(=O)[C@H](C)NC(=O)[C@@H](NC(=O)[C@H](Cc1ccccc1)NC(=O)CNC(=O)[C@@H]1CCCN1C(=O)[C@@H]1CCCN1C(=O)[C@@H](NC(=O)[C@H](CCC(=O)O)NC(=O)[C@H](CCCN=C(N)N)NC(=O)[C@H](CC(N)=O)NC(=O)[C@@H](N)CCC(=O)O)C(C)C)[C@@H](C)O)[C@@H](C)CC)[C@@H](C)O)[C@@H](C)CC)C(=O)O", "note": "[ENREVPPGFTALIKTLRKCKII]", "values": [{"measurement": "MIC", "setting": "Enterococcus faecium", "result": 12.7, "unit": "µM"}, {"measurement": "MIC", "setting": "Staphylococcus aureus", "result": 4.47, "unit": "µM"}, {"measurement": "MIC", "setting": "Klebsiella pneumoniae", "result": 4.47, "unit": "µM"}, {"measurement": "MIC", "setting": "[1]", "result": 12.7, "unit": "µM"}, {"measurement": "MIC", "setting": "Pseudomonas aeruginosa", "result": 12.7, "unit": "µM"}, {"measurement": "MIC", "setting": "Streptococcus pneumoniae", "result": 4.47, "unit": "µM"}, {"measurement": "MIC", "setting": "Acinetobacter baumannii", "result": 12.7, "unit": "µM"}, {"measurement": "MIC", "setting": "Serratia marcescens", "result": 8.95, "unit": "µM"}, {"measurement": "MIC", "setting": "Staphylococcus aureus MR", "result": 4.47, "unit": "µM"}, {"measurement": "MIC", "setting": "Escherichia coli", "result": 3.16, "unit": "µM"}, {"measurement": "MIC", "setting": "Enterococcus faecalis", "result": 4.47, "unit": "µM"}]}, {"smiles": "CC[C@H](C)[C@H](N)C(=O)N[C@@H](CCCCN)C(=O)N[C@@H](CC(C)C)C(=O)N[C@@H](CO)C(=O)N[C@@H](CCCCN)C(=O)N[C@@H](CCCCN)C(=O)N[C@H](C(=O)N[C@@H](CCCCN)C(=O)N[C@@H](CC(=O)O)C(=O)N[C@@H](CC(N)=O)C(=O)N[C@@H](CC(C)C)C(=O)N[C@@H](CCCCN)C(=O)N[C@@H](CCCCN)C(=O)N[C@H](C(=O)N[C@@H](CC(C)C)C(=O)N[C@@H](CCCCN)C(=O)NCC(=O)N[C@@H](C)C(=O)N[C@H](C(=O)N[C@@H](CCCCN)C(=O)NCC(=O)N[C@@H](C)C(=O)N[C@H](C(=O)N[C@@H](C)C(=O)N[C@H](C(=O)N[C@@H](C)C(=O)N[C@@H](CCCCN)C(=O)N[C@@H](CCSC)C(=O)N[C@H](C(N)=O)C(C)C)C(C)C)[C@@H](C)CC)[C@@H](C)CC)C(C)C)[C@@H](C)O", "note": "[IKLSKKTKDNLKKVLKGAIKGAIAVAKMV]", "values": [{"measurement": "MIC", "setting": "[2]", "result": "≥ 100", "unit": "µM"}, {"measurement": "MIC", "setting": "[3]", "result": 12.5, "unit": "µM"}, {"measurement": "MIC", "setting": "[4]", "result": 1.6, "unit": "µM"}, {"measurement": "MIC", "setting": "[5]", "result": 3.1, "unit": "µM"}, {"measurement": "MIC", "setting": "[1]", "result": 1.6, "unit": "µM"}, {"measurement": "MIC", "setting": "Acinetobacter baumannii", "result": 3.1, "unit": "µM"}, {"measurement": "MIC", "setting": "[6]", "result": "≥ 100", "unit": "µM"}, {"measurement": "MIC", "setting": "[7]", "result": 0.8, "unit": "µM"}, {"measurement": "MIC", "setting": "[8]", "result": 3.1, "unit": "µM"}, {"measurement": "MIC", "setting": "[9]", "result": 6.25, "unit": "µM"}, {"measurement": "MIC", "setting": "[10]", "result": 3.1, "unit": "µM"}]}, {"smiles": "CC(C)[C@H](NC(=O)[C@H](CCCCN)NC(=O)CNC(=O)CNC(=O)[C@H](CCC(N)=O)NC(=O)[C@H](CCCCN)NC(=O)CNC(=O)[C@H](CCCN=C(N)N)NC(=O)CNC(=O)[C@@H](N)CCCCN)C(=O)N[C@@H](CCCN=C(N)N)C(=O)N[C@@H](C)C(=O)N[C@@H](CCCCN)C(=O)N[C@@H](C)C(=O)N[C@@H](CCCCN)C(=O)N[C@H](C(=O)N[C@@H](CCCN=C(N)N)C(=O)O)[C@@H](C)O", "note": "[KGRGKQGGKVRAKAKTR]", "values": [{"measurement": "MIC", "setting": "[11]", "result": 2.19, "unit": "µM"}, {"measurement": "MIC", "setting": "[12]", "result": 0.548, "unit": "µM"}, {"measurement": "MIC", "setting": "[13]", "result": 0.548, "unit": "µM"}, {"measurement": "MIC", "setting": "[14]", "result": 0.548, "unit": "µM"}, {"measurement": "MIC", "setting": "[15]", "result": 0.548, "unit": "µM"}, {"measurement": "MIC", "setting": "[16]", "result": 1.1, "unit": "µM"}, {"measurement": "MIC", "setting": "[17]", "result": 2.19, "unit": "µM"}, {"measurement": "MIC", "setting": "[18]", "result": 0.548, "unit": "µM"}, {"measurement": "MIC", "setting": "[19]", "result": 0.548, "unit": "µM"}]}, {"smiles": "C[C@H](NC(=O)[C@H](C)NC(=O)[C@H](C)NC(=O)[C@H](Cc1c[nH]c2ccccc12)NC(=O)[C@H](C)NC(=O)[C@H](C)NC(=O)[C@H](C)NC(=O)[C@H](CCCCN)NC(=O)[C@@H](N)CCCCN)C(=O)N[C@@H](C)C(=O)N[C@@H](C)C(=O)N[C@@H](Cc1c[nH]c2ccccc12)C(=O)N[C@@H](C)C(=O)N[C@@H](C)C(=O)N[C@@H](Cc1c[nH]c2ccccc12)C(=O)N[C@@H](C)C(=O)N[C@@H](C)C(=O)N[C@@H](Cc1c[nH]c2ccccc12)C(=O)N[C@@H](C)C(=O)N[C@@H](C)C(=O)N[C@@H](C)C(=O)N[C@@H](CCCCN)C(=O)N[C@@H](CCCCN)C(=O)N[C@@H](CCCCN)C(=O)N[C@@H](CCCCN)C(N)=O", "note": "[KKAAAWAAAAAWAAWAAWAAAKKKK]", "values": [{"measurement": "MIC", "setting": "[20]", "result": 0.25, "unit": "µM"}, {"measurement": "MIC", "setting": "Escherichia coli UB1005", "result": 16, "unit": "µM"}, {"measurement": "MIC", "setting": "Escherichia coli DC2", "result": 8, "unit": "µM"}, {"measurement": "MIC", "setting": "[21]", "result": 0.25, "unit": "µM"}]}, {"smiles": "CC[C@H](C)[C@H](NC(=O)[C@@H]1CCCN1C(=O)[C@H](Cc1c[nH]c2ccccc12)NC(=O)[C@H](CCC(N)=O)NC(=O)[C@H](CCCCN)NC(=O)[C@H](CC(C)C)NC(=O)[C@H](CC(C)C)NC(=O)[C@@H](N)CCCCN)C(=O)NCC(=O)N[C@@H](CCCCN)C(=O)N[C@@H](CC(C)C)C(=O)N[C@@H](CC(C)C)C(=O)N[C@@H](CCCCN)C(=O)N[C@@H](CCCCN)C(=O)N[C@@H](CC(C)C)C(=O)N[C@@H](CC(C)C)C(=O)N[C@@H](CCCCN)C(=O)N[C@@H](CCCCN)C(=O)N[C@@H](CC(C)C)C(=O)N[C@@H](CC(C)C)C(=O)N[C@@H](CCCCN)C(=O)O", "note": "[KLLKQWPIGKLLKKLLKKLLK]", "values": [{"measurement": "MIC", "setting": "[11]", "result": 0.395, "unit": "µM"}, {"measurement": "MIC", "setting": "[12]", "result": 0.198, "unit": "µM"}, {"measurement": "MIC", "setting": "[13]", "result": 0.395, "unit": "µM"}, {"measurement": "MIC", "setting": "[14]", "result": 0.395, "unit": "µM"}, {"measurement": "MIC", "setting": "[15]", "result": 0.395, "unit": "µM"}, {"measurement": "MIC", "setting": "[16]", "result": 0.395, "unit": "µM"}, {"measurement": "MIC", "setting": "[17]", "result": 0.198, "unit": "µM"}, {"measurement": "MIC", "setting": "[18]", "result": 0.395, "unit": "µM"}, {"measurement": "MIC", "setting": "[19]", "result": 0.395, "unit": "µM"}]}, {"smiles": "CC[C@H](C)[C@H](NC(=O)[C@H](CC(C)C)NC(=O)[C@H](C)NC(=O)[C@@H]1CCCN1C(=O)[C@H](C)NC(=O)[C@@H](NC(=O)[C@H](CCCCN)NC(=O)[C@@H](N)CCCN=C(N)N)C(C)C)C(=O)N[C@@H](CCCCN)C(=O)N[C@@H](CO)C(=O)N[C@@H](Cc1ccccc1)C(=O)N[C@H](C(=O)N[C@@H](Cc1ccccc1)C(=O)N[C@@H](CC(C)C)C(=O)N[C@@H](Cc1ccccc1)C(=O)N[C@@H](CCCCN)C(=O)N[C@@H](Cc1ccccc1)C(=O)N[C@@H](CCCCN)C(=O)N[C@@H](CCCCN)C(=O)NCC(=O)O)C(C)C", "note": "[RKVAPALIKSFVFLFKFKKG]", "values": [{"measurement": "MIC", "setting": "Bacillus anthracis", "result": "≥ 110", "unit": "µM"}, {"measurement": "MIC", "setting": "Staphylococcus aureus", "result": 55.1, "unit": "µM"}, {"measurement": "MIC", "setting": "Bacillus cereus", "result": "≥ 110", "unit": "µM"}, {"measurement": "MIC", "setting": "Escherichia coli", "result": "> 110", "unit": "µM"}]}, {"smiles": "CC(C)C[C@H](NC(=O)[C@H](C)NC(=O)[C@H](CO)NC(=O)[C@H](Cc1ccccc1)NC(=O)[C@@H](NC(=O)[C@H](CO)NC(=O)[C@@H]1CCCN1C(=O)[C@@H](NC(=O)[C@@H](NC(=O)[C@H](CCCCN)NC(=O)[C@H](CO)NC(=O)[C@H](C)NC(=O)[C@H](CC(C)C)NC(=O)[C@H](CCCCN)NC(=O)[C@H](Cc1ccccc1)NC(=O)[C@@H](NC(=O)[C@H](Cc1ccccc1)NC(=O)[C@@H](N)CO)C(C)C)C(C)C)C(C)C)C(C)C)C(=O)N[C@H](C(=O)N[C@@H](CCCN=C(N)N)C(=O)O)[C@@H](C)O", "note": "[SFVFKLASKVVPSVFSALTR]", "values": [{"measurement": "MIC", "setting": "Bacillus anthracis", "result": "≥ 58.6", "unit": "µM"}, {"measurement": "MIC", "setting": "Staphylococcus aureus", "result": 117, "unit": "µM"}, {"measurement": "MIC", "setting": "Bacillus cereus", "result": "≥ 117", "unit": "µM"}, {"measurement": "MIC", "setting": "Escherichia coli", "result": 117, "unit": "µM"}]}]}
